Experimental data: patent US8460712B2, “Prolonged release formulations comprising an 2-oxo-1-pyrrolidine derivate” (UCB Pharma, S.A., priority 2008, dated 2013)

Tests used:
[1] = system: fully amygdala-kindled rats; assay: fully amygdala-kindled rats; format: in vivo; details: for dose from which significant suppression in motor-seizure severity was induced: rat, in vivo
[2] = system: rat hippocampal slices; assay: epileptiform responses in hippocampal slices induced by high-K+/low-Ca2+ fluid (HKLCF); format: cell-based, Sprague-Dawley rats; set-up: rate of spontaneous field bursting: dose or concentration left out as unconfirmed; details: for evoked epileptiform responses (PS1 amplitude, repetitive PSs per evoked burst): CA3 area, fimbrial stimulation, HKLCF perfusion; for rate of spontaneous field bursting: HKLCF
Experimental: The effect of brivaracetam on epileptiform responses induced by high-K+/low-Ca2+ concentrations or by bicuculline was examined in transverse hippocampal slices prepared from Sprague-Dawley rats according to previously reported standard procedures. The epileptiform responses were induced by passing from a normal perfusion of artificial cerebrospinal fluid (ACSF) (K+ 3 mM; Ca2+ 2.4 mM) to either high-K+/low-Ca2+ fluid (HKLCF) (K+ 7.5 mM; Ca2+ 0.5 mM) or to 5 M bicuculline methiodide (BMI)-containing ACSF.
Extracellular field potentials (FPs) were recorded in the CA3 area of the slices with 2 M NaCl-filled glass microelectrodes. The evoked FPs were recorded at 10-min intervals in response to fimbrial stimulation with constant current rectangular pulses that elicit a single population spike (PS) of 50-75% of the maximal amplitude when the slice is in ACSF. In the HKLCF model, 2 min of spontaneous activity were also recorded, in the middle of each 10-min interval between the recordings of evoked responses.
Either brivaracetam or levetiracetam was added to the bathing fluid of the slices 20 min before shifting from ACSF to either HKLCF or […] BMI-containing ACSF, and was kept in the perfusion fluid throughout the experiment.

[3] = system: genetically sound-sensitive male mice; assay: audiogenic seizures in mice; format: in vivo; details: acoustic stimulus 90 dB, 30 s; brivaracetam i.p. 30 min, levetiracetam i.p. 60 min before
Experimental: Audiogenic seizures in mice: Genetically sound-sensitive male mice (16-28 g; n=10 per group), responding with wild running, clonic and tonic convulsions to an acoustic stimulation, were used. Audiogenic seizures were induced by an acoustic stimulus (90 dB, 10-20 kHz) applied for 30 s. The mice were pretreated with either saline, brivaracetam (i.p., 30 min) or levetiracetam (i.p., 60 min), and the proportion of mice protected against clonic convulsions was used as the end point to assess anticonvulsant activity.

[4] = system: GAERS rats; assay: spontaneous SWDs in GAERS rats; format: in vivo; details: for dose from which spontaneous SWDs were significantly suppressed: rat, in vivo
[5] = system: mice; assay: chemically induced seizures in mice (pentylenetetrazol); format: in vivo; details: i.p. 30 min before seizure induction; pentylenetetrazol 83 mg kg-1 s.c.; higher ED50 than audiogenic
Experimental: The dose was selected based on dose-effect curves in saline-treated animals as the convulsive dose inducing clonic convulsions of all four extremities in 97% of the animals. Immediately after administration of the chemoconvulsant, the mice were placed individually in small plastic cages (25 13 8 cm) and observed for the presence of clonic convulsions in all four extremities, for 60 min. The occurrence of tonic convulsions (hindlimb extension) and mortality was also recorded during this interval. The proportion of mice protected against clonic convulsions was calculated and used as the end point for anticonvulsant activity.

[6] = water solubility
[7] = system: mice; assay: corneal kindling of mice; format: in vivo; details: continued corneal stimulations after termination of treatment; group previously treated with the highest dose
[8] = system: mice; assay: maximal electroshock in mice; format: in vivo; details: i.p. 30 min before seizure induction; higher ED50 than audiogenic
[9] = system: rat hippocampal slices; details: background statement; cited from earlier work
[10] = system: rat hippocampal slices; details: background statement; cited from earlier work; remark: listed apart in the source

CCC[C@@H]1CC(=O)N([C@@H](CC)C(N)=O)C1 [Brivaracetam, (2S)-2-[(4R)-2-oxo-4-propyl-pyrrolidin-1-yl] butanamide]
after-discharge duration ([1]; highest dose tested, 212.3 mg kg-1): significantly reduced
dose from which significant suppression in motor-seizure severity was induced [1]: ≥ 21.2 mg/kg
evoked epileptiform responses (PS1 amplitude, repetitive PSs per evoked burst) [2]: reduced
rate of spontaneous field bursting [2]: reduced
protection against the expression of clonic convulsions [3]: protected
inhibition of spontaneous SWDs ([4]; highest dose tested, 67.9 mg kg-1): complete inhibition
dose from which spontaneous SWDs were significantly suppressed [4]: ≥ 2.1 mg/kg
protection against clonic convulsions induced by pentylenetetrazol [5]: protected
solubility [6]: > 500 mg/mL
incidence of generalized motor seizures [7]: persistent reduction
protection against tonic hindlimb extension induced by a maximal electroshock [8]: protected

CC[C@@H](C(N)=O)N1CCCC1=O [Levetiracetam, (S)-(−)-alpha-ethyl-2-oxo-1-pyrrolidine acetamide]
dose from which significant suppression in motor-seizure severity was induced [1]: ≥ 170 mg/kg
after-discharge duration ([1]; up to 1700 mg kg-1): inactive
evoked epileptiform responses (PS1 amplitude, repetitive PSs per evoked burst) [2]: reduced
rate of spontaneous field bursting [2]: not
epileptiform responses induced by bicuculline [9]: reduces
protection against the expression of clonic convulsions [3]: protected
dose from which spontaneous SWDs were significantly suppressed [4]: ≥ 5.4 mg/kg
epileptiform responses induced by high-K+/low-Ca2+ concentrations [10]: reduces

CC[C@@H](C(N)=O)N1C[C@H](C=C(F)F)CC1=O [Seletracetam, (2S)-2-[(4S)-4-(2,2-difluorovinyl)-2-oxo-pyrrolidin-1-yl]butanamide]
solubility [6]: > 500 mg/mL
